Experimental data reported in patent US9834518B2, “Compounds for inhibiting cell proliferation in EGFR-driven cancers” (ARIAD Pharmaceuticals, Inc., priority 2011, dated 2017).

How the values were obtained:
[1] = target: EGFR bearing the L858R/T790M double mutation (Homo sapiens, UniProt P00533, L858R/T790M); assay: Kinase inhibition, EGFR L858R/T790M; assay type: biochemical; conditions: 10 μM ATP; 10 pt curves, 3 μM top concentration (singlicates)
Experimental: (§1) Kinase inhibitory activity of the compounds was measured against human EGFR (native sequence) and against EGFR bearing the L858R mution and the L858R/T790M double mutation (EGFR, L858R, and L858R/T790M, respectively in Table 1). Additional assays can be conducted with EGFR deletion mutants such as delE746-A750 with or without the additional T790M mutation. Assay conditions included 10 pt curves with 3 μM top concentration (singlicates) and 10 μM ATP.

[2] = system: BAF3 EGFR L858R-T790M PURO POOL; assay: Cell proliferation (MTT), BAF3 EGFR L858R-T790M; assay type: cell-based; conditions: Ba/F3 EGFR
Experimental: (§2) We also assessed the antiproliferative activity of compounds of Formula (I) against BaF3 cells expressing the target EGFR mutations or control (i.e., cell lines expressing wildtype EGFR). Assays were conducted using MTT.

BAF3 PARENTAL = assay: Cell proliferation (MTT), BAF3 parental; assay type: cell-based; conditions: Mus musculus
Experimental: as §2

[3] = target: human EGFR (native sequence) (Homo sapiens, UniProt P00533); assay: Kinase inhibition, human EGFR (native sequence); assay type: biochemical; conditions: 10 μM ATP; 10 pt curves, 3 μM top concentration (singlicates)
Experimental: as §1

[4] = target: EGFR bearing the L858R mution (Homo sapiens, UniProt P00533, L858R); assay: Kinase inhibition, EGFR L858R; assay type: biochemical; conditions: 10 μM ATP; 10 pt curves, 3 μM top concentration (singlicates)
Experimental: as §1

[5] = target: BAF3 EGFR DEL T790M PURO POOL (Homo sapiens, UniProt P00533, DEL746-750/T790M, cells depend on it); assay: Cell proliferation (MTT), BAF3 EGFR DEL T790M; assay type: cell-based
Experimental: as §2

Sequence of EGFR bearing the L858R mution (P00533 25-1210 L858R): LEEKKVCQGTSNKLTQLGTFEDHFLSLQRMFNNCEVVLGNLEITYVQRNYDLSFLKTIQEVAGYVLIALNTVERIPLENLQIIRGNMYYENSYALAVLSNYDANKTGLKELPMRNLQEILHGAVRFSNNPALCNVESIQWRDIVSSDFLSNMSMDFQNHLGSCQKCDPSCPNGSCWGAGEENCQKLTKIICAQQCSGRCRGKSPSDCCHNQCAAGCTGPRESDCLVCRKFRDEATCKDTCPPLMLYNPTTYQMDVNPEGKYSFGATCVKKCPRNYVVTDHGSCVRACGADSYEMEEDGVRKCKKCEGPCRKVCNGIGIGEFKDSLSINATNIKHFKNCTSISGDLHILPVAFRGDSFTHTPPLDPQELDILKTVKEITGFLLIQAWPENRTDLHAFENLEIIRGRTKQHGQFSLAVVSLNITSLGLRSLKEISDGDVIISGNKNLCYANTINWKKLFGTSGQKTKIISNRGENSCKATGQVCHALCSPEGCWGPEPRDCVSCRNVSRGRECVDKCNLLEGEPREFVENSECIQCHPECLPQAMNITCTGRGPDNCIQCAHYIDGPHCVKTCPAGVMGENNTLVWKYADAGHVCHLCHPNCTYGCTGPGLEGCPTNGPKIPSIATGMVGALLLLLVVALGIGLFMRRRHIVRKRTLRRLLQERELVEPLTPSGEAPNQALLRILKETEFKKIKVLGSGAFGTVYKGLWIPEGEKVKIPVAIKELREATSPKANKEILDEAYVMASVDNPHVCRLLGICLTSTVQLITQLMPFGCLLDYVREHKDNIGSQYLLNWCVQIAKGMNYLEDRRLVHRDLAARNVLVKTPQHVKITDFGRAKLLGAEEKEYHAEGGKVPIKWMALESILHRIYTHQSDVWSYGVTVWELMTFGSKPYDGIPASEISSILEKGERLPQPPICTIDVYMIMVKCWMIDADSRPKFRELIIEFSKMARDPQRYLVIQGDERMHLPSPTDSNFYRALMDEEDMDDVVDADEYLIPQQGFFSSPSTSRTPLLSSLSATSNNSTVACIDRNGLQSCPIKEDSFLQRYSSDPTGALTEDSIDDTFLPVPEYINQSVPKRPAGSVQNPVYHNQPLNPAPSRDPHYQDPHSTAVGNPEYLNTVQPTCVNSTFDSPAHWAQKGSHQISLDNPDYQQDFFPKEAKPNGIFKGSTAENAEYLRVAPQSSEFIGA
Sequence of EGFR bearing the L858R/T790M double mutation (P00533 25-1210 T790M/L858R): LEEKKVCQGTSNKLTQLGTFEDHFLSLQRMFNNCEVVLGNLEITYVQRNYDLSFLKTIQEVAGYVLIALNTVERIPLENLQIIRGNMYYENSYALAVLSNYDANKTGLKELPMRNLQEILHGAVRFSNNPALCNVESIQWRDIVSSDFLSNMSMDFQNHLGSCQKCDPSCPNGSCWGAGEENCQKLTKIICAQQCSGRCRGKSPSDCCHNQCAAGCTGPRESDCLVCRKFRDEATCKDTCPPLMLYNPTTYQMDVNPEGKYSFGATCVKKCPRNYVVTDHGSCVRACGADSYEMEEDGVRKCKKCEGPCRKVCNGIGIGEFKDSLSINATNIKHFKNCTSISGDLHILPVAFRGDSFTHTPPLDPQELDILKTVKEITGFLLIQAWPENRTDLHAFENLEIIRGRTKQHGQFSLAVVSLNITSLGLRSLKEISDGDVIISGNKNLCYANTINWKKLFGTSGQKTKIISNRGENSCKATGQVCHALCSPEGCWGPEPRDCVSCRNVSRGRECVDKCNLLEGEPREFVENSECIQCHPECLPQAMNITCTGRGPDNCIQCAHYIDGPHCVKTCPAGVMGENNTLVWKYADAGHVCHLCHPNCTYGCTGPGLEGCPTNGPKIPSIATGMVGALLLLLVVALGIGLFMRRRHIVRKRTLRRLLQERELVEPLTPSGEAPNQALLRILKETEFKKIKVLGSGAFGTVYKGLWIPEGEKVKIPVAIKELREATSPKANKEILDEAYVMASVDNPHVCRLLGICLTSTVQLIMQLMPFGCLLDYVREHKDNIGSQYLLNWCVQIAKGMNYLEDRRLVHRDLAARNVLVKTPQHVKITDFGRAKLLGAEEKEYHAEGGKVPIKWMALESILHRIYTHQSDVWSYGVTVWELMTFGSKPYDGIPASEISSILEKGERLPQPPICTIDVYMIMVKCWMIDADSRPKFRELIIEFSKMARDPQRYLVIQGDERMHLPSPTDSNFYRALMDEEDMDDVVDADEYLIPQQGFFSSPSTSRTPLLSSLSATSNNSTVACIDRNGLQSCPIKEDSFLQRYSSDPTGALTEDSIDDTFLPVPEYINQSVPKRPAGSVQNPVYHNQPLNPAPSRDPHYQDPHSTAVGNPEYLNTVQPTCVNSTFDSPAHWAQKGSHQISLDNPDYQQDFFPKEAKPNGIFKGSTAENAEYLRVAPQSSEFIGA
Sequence of BAF3 EGFR DEL T790M PURO POOL (P00533 with tags, fused parts or gaps DEL746-750/T790M): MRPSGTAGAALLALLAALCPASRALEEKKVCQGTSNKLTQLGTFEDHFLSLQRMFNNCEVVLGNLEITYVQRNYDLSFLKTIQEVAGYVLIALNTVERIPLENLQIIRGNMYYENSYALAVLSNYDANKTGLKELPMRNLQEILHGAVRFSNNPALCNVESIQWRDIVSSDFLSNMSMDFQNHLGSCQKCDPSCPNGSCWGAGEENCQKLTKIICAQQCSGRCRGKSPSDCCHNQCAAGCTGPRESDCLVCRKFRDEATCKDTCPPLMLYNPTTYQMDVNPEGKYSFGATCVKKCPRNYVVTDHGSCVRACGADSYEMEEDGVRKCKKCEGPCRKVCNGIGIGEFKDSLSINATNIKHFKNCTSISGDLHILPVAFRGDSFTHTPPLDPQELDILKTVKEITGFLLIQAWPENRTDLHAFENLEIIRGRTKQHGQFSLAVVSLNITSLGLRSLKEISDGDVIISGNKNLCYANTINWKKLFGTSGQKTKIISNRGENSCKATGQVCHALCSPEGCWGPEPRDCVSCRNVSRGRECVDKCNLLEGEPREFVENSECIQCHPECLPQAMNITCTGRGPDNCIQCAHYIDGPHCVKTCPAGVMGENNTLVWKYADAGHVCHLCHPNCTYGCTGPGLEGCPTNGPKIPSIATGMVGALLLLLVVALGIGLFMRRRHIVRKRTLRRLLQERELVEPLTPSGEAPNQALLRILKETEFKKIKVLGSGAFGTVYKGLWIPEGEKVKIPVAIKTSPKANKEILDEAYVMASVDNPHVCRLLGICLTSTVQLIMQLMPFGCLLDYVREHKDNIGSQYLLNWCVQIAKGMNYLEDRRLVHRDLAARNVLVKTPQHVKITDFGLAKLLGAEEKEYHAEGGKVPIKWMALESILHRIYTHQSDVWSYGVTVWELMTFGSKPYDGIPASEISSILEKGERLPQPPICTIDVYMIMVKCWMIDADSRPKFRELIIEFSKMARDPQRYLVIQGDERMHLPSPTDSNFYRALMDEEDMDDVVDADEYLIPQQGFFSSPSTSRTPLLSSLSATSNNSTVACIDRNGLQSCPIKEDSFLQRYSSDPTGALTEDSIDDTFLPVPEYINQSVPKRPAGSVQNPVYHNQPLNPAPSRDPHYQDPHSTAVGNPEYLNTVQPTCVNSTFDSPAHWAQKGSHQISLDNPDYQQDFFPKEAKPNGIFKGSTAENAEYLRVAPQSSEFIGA
Sequence of human EGFR (native sequence) (P00533 25-1210): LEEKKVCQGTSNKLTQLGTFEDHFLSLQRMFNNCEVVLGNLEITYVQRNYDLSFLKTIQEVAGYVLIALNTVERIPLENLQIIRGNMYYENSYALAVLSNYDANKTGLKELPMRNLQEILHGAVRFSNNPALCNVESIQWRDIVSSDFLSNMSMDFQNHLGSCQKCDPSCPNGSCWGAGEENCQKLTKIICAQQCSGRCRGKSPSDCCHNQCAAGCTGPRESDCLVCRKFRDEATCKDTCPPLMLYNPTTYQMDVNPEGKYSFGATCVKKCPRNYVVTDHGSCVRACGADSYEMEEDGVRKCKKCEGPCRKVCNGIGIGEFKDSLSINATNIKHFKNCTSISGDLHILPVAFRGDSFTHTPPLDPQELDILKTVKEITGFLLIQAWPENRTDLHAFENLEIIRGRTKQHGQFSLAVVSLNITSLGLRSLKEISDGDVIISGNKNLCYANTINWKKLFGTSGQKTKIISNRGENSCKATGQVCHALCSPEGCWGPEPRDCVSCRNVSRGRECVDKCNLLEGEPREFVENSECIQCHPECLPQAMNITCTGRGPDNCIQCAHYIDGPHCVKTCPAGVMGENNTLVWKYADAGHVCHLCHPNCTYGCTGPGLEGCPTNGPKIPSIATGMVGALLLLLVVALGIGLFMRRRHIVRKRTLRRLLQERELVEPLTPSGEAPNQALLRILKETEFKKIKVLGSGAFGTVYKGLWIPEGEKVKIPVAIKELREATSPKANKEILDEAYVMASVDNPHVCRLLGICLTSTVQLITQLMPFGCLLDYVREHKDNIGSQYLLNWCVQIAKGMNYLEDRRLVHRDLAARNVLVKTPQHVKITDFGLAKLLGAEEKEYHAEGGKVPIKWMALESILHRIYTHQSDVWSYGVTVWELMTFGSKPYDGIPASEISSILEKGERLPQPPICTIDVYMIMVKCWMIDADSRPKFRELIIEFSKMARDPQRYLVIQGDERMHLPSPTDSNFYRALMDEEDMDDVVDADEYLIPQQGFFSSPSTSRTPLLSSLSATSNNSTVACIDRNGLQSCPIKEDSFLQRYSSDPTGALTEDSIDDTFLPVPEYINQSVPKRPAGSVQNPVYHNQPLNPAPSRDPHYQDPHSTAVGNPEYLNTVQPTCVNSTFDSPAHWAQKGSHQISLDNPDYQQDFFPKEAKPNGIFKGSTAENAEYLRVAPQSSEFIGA

| Structure (SMILES) | IC50 [1] | IC50 [2] | IC50 [3] | IC50 [4] | IC50 [5] | IC50 (BAF3 PARENTAL) |
| --- | --- | --- | --- | --- | --- | --- |
| C=CC(=O)N(C)c1ccc(OC)c(Nc2ncc(Cl)c(Nc3ccccc3P(C)(C)=O)n2)c1 [Example 44, N-(3-((5-chloro-4-((2-(dimethylphosphoryl)phenyl)amino)pyrimidin-2-yl)amino)-4-methoxyphenyl)-N-methylacrylamide] | < 51 nM | < 51 nM | 101 to 250 nM | < 51 nM | < 51 nM | ≥ 250 nM |
| C=CC(=O)Nc1ccc(OCC)c(Nc2ncc(Cl)c(Nc3ccccc3P(C)(C)=O)n2)c1 [Example 47, N-(3-((5-chloro-4-((2-(dimethylphosphoryl)phenyl)amino)pyrimidin-2-yl)amino)-4-ethoxyphenyl)acrylamide] | < 51 nM | < 51 nM | < 51 nM | < 51 nM | < 51 nM | ≥ 250 nM |
| C=CC(=O)Nc1ccc(OC)c(Nc2ncc(Cl)c(Nc3cccc(C)c3P(=O)(CC)CC)n2)c1 [Example 50, N-(3-((5-chloro-4-((2-(diethylphosphoryl)-3-methylphenyl)amino)pyrimidin-2-yl)amino)-4-methoxyphenyl)acrylamide] | < 51 nM | < 51 nM | < 51 nM | < 51 nM | < 51 nM | ≥ 250 nM |
| C=CC(=O)Nc1cc(Nc2ncc(Cl)c(Nc3ccccc3P(=O)(CC)CC)n2)c(OC)cc1OCCN(C)C [Example 52, N-(5-((5-chloro-4-((2-(diethylphosphoryl)phenyl)amino)pyrimidin-2-yl)amino)-2-(2-(dimethylamino)ethoxy)-4-methoxyphenyl)acrylamide] | < 51 nM | < 51 nM | < 51 nM | < 51 nM | < 51 nM | ≥ 250 nM |
| C=CC(=O)Nc1ccc(OC)c(Nc2ncc(Cl)c(Nc3ccc(F)cc3P(C)(C)=O)n2)c1 [Example 54, N-(3-((5-chloro-4-((2-(dimethylphosphoryl)-4-fluorophenyl)amino)pyrimidin-2-yl)amino)-4-methoxyphenyl)acrylamide] | < 51 nM | < 51 nM | 101 to 250 nM | < 51 nM | < 51 nM | ≥ 250 nM |
| C=CC(=O)Nc1cc(Nc2ncc(Cl)c(Nc3ccc(F)cc3P(C)(C)=O)n2)c(OC)cc1F [Example 55, N-(5-((5-chloro-4-((2-(dimethylphosphoryl)-4-fluorophenyl)amino)pyrimidin-2-yl)amino)-2-fluoro-4-methoxyphenyl)acrylamide] | < 51 nM | < 51 nM | 51 to 100 nM | < 51 nM | < 51 nM | ≥ 250 nM |
| COc1cc(F)c(NC(=O)/C=C/CN(C)C)cc1Nc1ncc(Cl)c(Nc2ccccc2P(C)(C)=O)n1 [Example 56, (E)-N-(5-((5-chloro-4-((2-(dimethylphosphoryl)phenyl)amino)pyrimidin-2-yl)amino)-2-fluoro-4-methoxyphenyl)-4-(dimethylamino)but-2-enamide] | < 51 nM | < 51 nM | 101 to 250 nM | < 51 nM | < 51 nM | ≥ 250 nM |
| COCCOc1cc(OC)c(Nc2ncc(Cl)c(Nc3ccccc3P(C)(C)=O)n2)cc1NC(=O)/C=C/CN(C)C [Example 57, (E)-N-(5-((5-chloro-4-((2-(dimethylphosphoryl)phenyl)amino)pyrimidin-2-yl)amino)-4-methoxy-2-(2-methoxyethoxy)phenyl)-4-(dimethylamino)but-2-enamide] | < 51 nM | ≥ 250 nM | ≥ 250 nM | < 51 nM | ≥ 250 nM | ≥ 250 nM |
| C=CP(C)(=O)Cc1ccc(OC)c(Nc2ncc(Cl)c(Nc3ccccc3P(C)(C)=O)n2)c1 (stereo not drawn) [Example 60, (2-((5-chloro-2-((2-methoxy-5-((methyl(vinyl)phosphoryl)methyl)phenyl)amino)pyrimidin-4-yl)amino)phenyl)dimethylphosphine oxide] | ≥ 250 nM | ≥ 250 nM | ≥ 250 nM | ≥ 250 nM | ≥ 250 nM | ≥ 250 nM |
| C=CC(=O)Nc1cc(Nc2ncc(Cl)c(Nc3ccccc3P(C)(C)=O)n2)c(OC)cc1N(CC)CCN(CC)CC [Example 61, N-(5-((5-chloro-4-((2-(dimethylphosphoryl)phenyl)amino)pyrimidin-2-yl)amino)-2-((2-(diethylamino)ethyl)(ethyl)amino)-4-methoxyphenyl)acrylamide] | < 51 nM | < 51 nM | < 51 nM | < 51 nM | < 51 nM | ≥ 250 nM |

Second part, led by results:

| IC50 [1] | IC50 [2] | IC50 [3] | IC50 [4] | IC50 [5] | Structure (SMILES) | IC50 (BAF3 PARENTAL) |
| --- | --- | --- | --- | --- | --- | --- |
| < 51 nM | < 51 nM | < 51 nM | < 51 nM | < 51 nM | C=CC(=O)Nc1cc(Nc2ncc(Cl)c(Nc3ccccc3P(C)(C)=O)n2)c(OC)cc1OCCN(C)CCOC [Example 39, N-(5-((5-chloro-4-((2-(dimethylphosphoryl)phenyl)amino)pyrimidin-2-yl)amino)-4-methoxy-2-(2-((2-methoxyethyl)(methyl)amino)ethoxy)phenyl)acrylamide] | ≥ 250 nM |
| < 51 nM | ≥ 250 nM | < 51 nM | < 51 nM | < 51 nM | C=CC(=O)Nc1cc(Nc2ncc(Cl)c(Nc3ccccc3P(C)(C)=O)n2)c(OC)cc1CCCN(CC)CC [Example 40, N-(5-((5-chloro-4-((2-(dimethylphosphoryl)phenyl)amino)pyrimidin-2-yl)amino)-2-(3-(diethylamino)propyl)-4-methoxyphenyl)acrylamide] | ≥ 250 nM |
| < 51 nM | 51 to 100 nM | < 51 nM | < 51 nM | < 51 nM | C=CC(=O)Nc1cc(Nc2ncc(Cl)c(Nc3ccccc3P(C)(C)=O)n2)c(OC)cc1CCN(CC)CC [Example 41, N-(5-((5-chloro-4-((2-(dimethylphosphoryl)phenyl)amino)pyrimidin-2-yl)amino)-2-(2-(diethylamino)ethyl)-4-methoxyphenyl)acrylamide] | ≥ 250 nM |
| ≥ 250 nM | ≥ 250 nM | ≥ 250 nM | 101 to 250 nM | ≥ 250 nM | COc1ccc(N2C(=O)C=CC2=O)cc1Nc1ncc(Cl)c(Nc2ccccc2P(C)(C)=O)n1 [Example 46, 1-(3-((5-chloro-4-((2-(dimethylphosphoryl)phenyl)amino)pyrimidin-2-yl)amino)-4-methoxyphenyl)-1H-pyrrole-2,5-dione] | ≥ 250 nM |
| < 51 nM | < 51 nM | < 51 nM | < 51 nM | < 51 nM | C=CC(=O)Nc1cc(Nc2ncc(Cl)c(Nc3ccccc3P(=O)(CC)CC)n2)c(OC)cc1F [Example 48, N-(5-((5-chloro-4-((2-(diethylphosphoryl)phenyl)amino)pyrimidin-2-yl)amino)-2-fluoro-4-methoxyphenyl)acrylamide] | ≥ 250 nM |
| < 51 nM | < 51 nM | < 51 nM | < 51 nM | < 51 nM | C=CC(=O)Nc1cc(Nc2ncc(Cl)c(Nc3cccc(C)c3P(=O)(CC)CC)n2)c(OC)cc1F [Example 49, N-(5-((5-chloro-4-((2-(diethylphosphoryl)-3-methylphenyl)amino)pyrimidin-2-yl)amino)-2-fluoro-4-methoxyphenyl)acrylamide] | ≥ 250 nM |
| < 51 nM | ≥ 250 nM | 51 to 100 nM | < 51 nM | ≥ 250 nM | COc1cc(P(C)(C)=O)ccc1Nc1ncc(Cl)c(Oc2cccc(NC(=O)/C=C/CN(C)C)c2)n1 [Example 51, (E)-N-(3-((5-chloro-2-((4-(dimethylphosphoryl)-2-methoxyphenyl)amino)pyrimidin-4-yl)oxy)phenyl)-4-(dimethylamino)but-2-enamide] | ≥ 250 nM |
| < 51 nM | < 51 nM | 51 to 100 nM | < 51 nM | < 51 nM | C=CC(=O)Nc1ccc(OC)c(Nc2ncc(Cl)c(Nc3cccc(F)c3P(C)(C)=O)n2)c1 [Example 53, N-(3-((5-chloro-4-((2-(dimethylphosphoryl)-3-fluorophenyl)amino)pyrimidin-2-yl)amino)-4-methoxyphenyl)acrylamide] | ≥ 250 nM |
| < 51 nM | < 51 nM | < 51 nM | < 51 nM | < 51 nM | COc1ccc(NC(=O)C2CO2)cc1Nc1ncc(Cl)c(Nc2ccccc2P(C)(C)=O)n1 (stereo not drawn) [Example 58, N-(3-((5-chloro-4-((2-(dimethylphosphoryl)phenyl)amino)pyrimidin-2-yl)amino)-4-methoxyphenyl)oxirane-2-carboxamide] | ≥ 250 nM |
| < 51 nM | 101 to 250 nM | < 51 nM | < 51 nM | < 51 nM | COc1cc(N2CCOCC2)c(NC(=O)C2CO2)cc1Nc1ncc(Cl)c(Nc2ccccc2P(C)(C)=O)n1 (stereo not drawn) [Example 59, N-(5-((5-chloro-4-((2-(dimethylphosphoryl)phenyl)amino)pyrimidin-2-yl)amino)-4-methoxy-2-morpholinophenyl)oxirane-2-carboxamide] | ≥ 250 nM |
